Measured values as given in patent US12121510B2 (Cedars-Sinai Medical Center, priority 2016, dated 2024).
pIC50: −log10 of the molar value. Where two headings read alike, the source gives them in different places.

Tests used:
A549 or A549/DDP cells = assay: CIS IC50 with constant DZ-SIM ester or amide, Crystal Violet assay; format: cell-based, human; conditions: combination with CIS; 72 h
Method: Cell proliferation is determined by a Crystal Violet assay. The data represent the mean+/−SEM for two assays done in quadruplicate.

CTC 752-S-1 = assay: Circulating tumor cell growth IC50 / sensitization; format: cell-based, human
Description: (§1) Exemplary Embodiments are generally performed as follows, unless otherwise noted. Simvastatin is purchased from Ark Pharm, Inc. (Arlington Heights, IL). Cisplatin (CIS) is purchased from MedKoo Biosciences, Inc. (Chapel Hill, NC). Dihydroartemisinin is purchased from TCI America (Portland, OR). All other chemicals and reagents are purchased from standard sources such as Sigma-Aldrich and/or VWR and are of highest quality available. Puromycin dihydrochloride was purchased from Alfa Aesar (Tewksbury, MA). Deionized water ([…]) used for making solutions is obtained from Milli-Q Direct Ultrapure Water System from Millipore (Billerica, MA, USA). All intermediates are characterized by 1H NMR and mass analysis and the purity of compounds are analyzed by HPLC. 1H NMR data are collected on Bruker 400 MHz spectrometers using standard parameters; chemical shifts are reported in ppm (δ) in reference to residual non-deuterated solvent. ESI mass spectroscopy analysis is performed using a Thermo Fisher LTQ Orbitrap Elite system. IC50 is the half maximal inhibitory concentration and determined is determined by crystal violet assay unless otherwise noted.
(§2) Standard cell culture conditions typically are RPMI 1640 medium, 10% fetal bovine serum, 1% PenStrep, and are performed in a humidified atmosphere containing 5% CO2 at 37° C. Generally, 5,000 cells/well-10,000 cells/well are seeded in 96 well plates in 100 microliter medium/per well for 24 h, or as described in Example 16, unless otherwise noted. Certain cells require specialized media, growth factors, antibiotics, or culture condition adjustments, as will be apparent to a person of ordinary skill in the art.
Pancreatic cancer cells are cultured for 72 hours in vitro and exposed to the conventional chemotherapeutic drugs Gemcitabine (GEM) and Paclitaxel (PAC), known to inhibit pancreatic cancer growth in patients. GEM (or PAC) alone are compared to a combination with SIM, or a combination with DZ-SIM. […] Representative results are illustrated in the graphs in FIG. 3.
Cells are cultured according to their standard culturing conditions, and IC50s are determined as described herein-above.
Representative results of the determined IC50s are shown in the table below for the indicated cancer cells cultured in vitro, including CTCs (C752-S-1), B-Cell Lymphoma (Namalwa), prostate cancer cells (C4-2B), and renal cancer cells (Caki-1). The cells are cultured according to their standard culturing conditions, and IC50s are determined as described herein-above.

Caki-1 = assay: Renal cancer cell growth IC50 (crystal violet); format: cell-based, human; conditions: Caki-1, read-out: IC50
Description: as §1
(§3) The crystal violet assay is performed as follows, unless otherwise noted. Cell lines are supplemented with RPMI 1640 medium, 10% fetal bovine serum, 1% PenStrep, and placed in a humidified atmosphere containing 5% CO2 at 37° C. 5,000 cells/well renal cancer cells and 10,000 cells/well lymphoma cells are seeded in 96 well plates in 100 microliter medium/per well for 24 h. […] Renal cancer cells are fixed with 3.7% paraformaldehyde for 15 minutes and are stained with Crystal violet solution (0.5% in 25% methanol) for 30 minutes. After rinsing with water cell layers are dried and decolorized with Sorenson citrate with shaking for 20 minutes. Light absorption of the extracted supernatant is read at 595 nm. Lymphoma cell growth was evaluated using MTT and cells are incubated for 4 hours. 100 microliters of isopropanol is added, and the extracted supernatant fraction is read at absorption maximum of 595 nm.
as §2
as §3, with “Cell” for “The crystal violet assay is performed as follows, unless otherwise noted. Cell”, “cultured as follows. […]” for “supplemented with RPMI 1640 medium, 10% fetal bovine serum, 1% PenStrep, and placed in a humidified atmosphere containing 5% CO2 at 37° C.”, “is” for “was”

C4-2B = assay: Cancer cell growth IC50 (crystal violet); format: cell-based
Description: as §1, §3, §2

Namalwa = assay: Lymphoma cell growth IC50 (MTT); format: cell-based, human
Description: as §1, §3, §2
as §3, with “Cell” for “The crystal violet assay is performed as follows, unless otherwise noted. Cell”, “cultured as follows. […]” for “supplemented with RPMI 1640 medium, 10% fetal bovine serum, 1% PenStrep, and placed in a humidified atmosphere containing 5% CO2 at 37° C.”, “is” for “was”

[1] = Homo sapiens, Example 23, CTC 752-S-1
[2] = Homo sapiens, Example 23, read-out: IC50

Structure (SMILES) | pIC50 (Caki-1; Homo sapiens, Example 23) | pIC50 (C4-2B; Example 23) | pIC50 (Namalwa; [2]) | pIC50 (C4-2B; Example 22) | pIC50 (CTC 752-S-1; [1]) | further results
CCC(C)(C)C(=O)O[C@H]1C[C@@H](C)C=C2C=C[C@H](C)[C@H](CC[C@@H](O)C[C@@H](O)CC(=O)CCCCNC(=O)CCCCCN3/C(=C/C=C4\CCCC(/C=C/C5=[N+](CCCCS(=O)(=O)[O-])c6ccccc6C5(C)C)=C4Cl)C(C)(C)c4ccccc43)[C@H]21 [DZ-SIM amide] | – | – | – | – | – | Sensitization of cancer cells to CIS (A549 or A549/DDP cells): sensitize cancer cells to CIS
C[C@@H]1CC[C@H]2[C@@H](C)C(=O)O[C@@H]3O[C@@]4(C)CC[C@@H]1[C@]32OO4 [ART, Artemisinin] | – | – | – | 6.18 | – | pIC50 (CTC 752-S-1; Homo sapiens, Example 22, CTC 752-S-1, 3D cultured tumor spheroids): < 4.19; pIC50 (Caki-1; Homo sapiens, Example 22): < 4.19; pIC50 (Namalwa; Homo sapiens, Example 22, read-out: IC50): < 4.19
CC1CCC2C(C)C(OC(=O)CCCCCN3C(=CC=C4CCCC(C=CC5=[N+](CCCCS(=O)(=O)[O-])c6ccccc6C5(C)C)=C4Cl)C(C)(C)c4ccccc43)OC3OC4(C)CCC1C32OO4 (centres unmarked) [DZ-ART ester] | – | – | – | 6.54 | – | pIC50 (CTC 752-S-1; Example 22, CTC 752-S-1, 3D cultured tumor spheroids): 5.79; pIC50 (Caki-1; Example 22): 6.15; pIC50 (Namalwa; Example 22, read-out: IC50): 5.89

More lines, main results first:

pIC50 (Caki-1; Homo sapiens, Example 23) | pIC50 (C4-2B; Example 23) | pIC50 (Namalwa; [2]) | Structure (SMILES) | pIC50 (C4-2B; Example 22) | pIC50 (CTC 752-S-1; [1]) | further results
6.13 | 6.60 | 6.01 | COc1ccc(C[C@H](N)C(=O)N[C@H]2[C@@H](O)[C@H](n3cnc4c(N(C)C)ncnc43)O[C@@H]2CO)cc1 [Puromycin] | – | 5.31 | –
6.06 | 7.37 | 6.18 | COc1cccc2c1C(=O)c1c(O)c3c(c(O)c1C2=O)C[C@@](O)(C(=O)CO)C[C@@H]3O[C@H]1C[C@H](N)[C@H](O)[C@H](C)O1 [Doxorubicin] | – | 5.74 | –
